In patent publication EP1733731A1, “New uses of Glycerol derivatives in particular in cosmetics” (AGRO INDUSTRIE RECHERCHES ET DEVELOPPEMENTS (A.R.D.), priority 2005, dated 2006):

Biological target: T1, plasmine humaine (Homo sapiens, UniProt P00747)
T1 construct: connus pour interagir avec la plasmine via son domaine kringle V; testé in vitro sur l'activité amidolytique de la plasmine à l'aide d'un substrat synthétique (S-2251, Chromogénix)
Experiment: activation of proMMP-3 by plasmin in vitro (western blot)
Type: biochemical
Conditions: 25 µg/mL; 65 nM plasmin, 100 nM proMMP-3; Figure 1A-4
Description: • La Figure 1 représente la modulation de l'activation des proMMP-3 (Figures 1A et 1B) et proMMP-1 (Figure 1C) in vitro comme en culture par des extraits glycolipidiques du gluten de blé. • Figure 1A : 100 nM de proMMP-3 (Figure 1A-1) sont incubés avec 65 nM de plasmine en absence (Figure 1A-2) ou en présence de glycolipides (Figure 1A-3 et 4), à la concentration de 50µg/mL pour M1-Sucres (Figure 1A-3) et 25 µg/mL pour ED 23-11 (Figure 1A-4). • Figure 1B : des fibroblastes dermiques sont ensemencés en plaque 24 puits à raison de […] cellules par puits jusque confluence. Après une mise au repos de 18 heures, les cellules sont incubées en présence (Figure 1B-2, 3 et 4) ou non (Figure 1B-1) de 2,5 µg/mL de plasmine ainsi que des glycolipides M1(-Sucres) (Figure 1B-3) et ED 23-11 (Figure 1B-4) aux mêmes concentrations que précédemment. • Figure 1C : des fibroblastes dermiques sont ensemencés en plaque 24 puits à raison de […] cellules par puits jusque confluence. Après une mise au repos de 18 heures, les cellules sont incubées en présence (Figure 1C-2, 3 et 4) ou non (Figure 1C-1) de 2,5 µg/mL de plasmine ainsi que des glycolipides M1(-Sucres) (Figure 1C-3) et ED 23-11 (Figure 1C-4) aux mêmes concentrations que précédemment. Dans l'ensemble des figures 1A, 1B et 1C, la réaction est arrêtée aux temps indiqués par addition de 0,3 mg/ml d'aprotinine. […]

T1 sequence (P00747 97-580 limits assumed): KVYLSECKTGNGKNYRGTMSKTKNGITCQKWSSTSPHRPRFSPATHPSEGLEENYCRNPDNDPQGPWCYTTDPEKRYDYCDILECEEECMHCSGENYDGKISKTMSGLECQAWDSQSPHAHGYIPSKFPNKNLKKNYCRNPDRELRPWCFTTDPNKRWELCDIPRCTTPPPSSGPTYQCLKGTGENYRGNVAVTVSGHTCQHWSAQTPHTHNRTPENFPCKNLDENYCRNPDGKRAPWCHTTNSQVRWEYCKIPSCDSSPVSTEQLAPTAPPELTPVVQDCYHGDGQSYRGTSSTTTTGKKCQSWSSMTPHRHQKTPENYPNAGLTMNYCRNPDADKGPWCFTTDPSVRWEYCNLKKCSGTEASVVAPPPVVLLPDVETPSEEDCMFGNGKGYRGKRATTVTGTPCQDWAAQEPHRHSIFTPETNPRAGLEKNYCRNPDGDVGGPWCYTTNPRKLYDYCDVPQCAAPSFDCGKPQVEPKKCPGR
T1 sequence (P00747 581-810 limits assumed): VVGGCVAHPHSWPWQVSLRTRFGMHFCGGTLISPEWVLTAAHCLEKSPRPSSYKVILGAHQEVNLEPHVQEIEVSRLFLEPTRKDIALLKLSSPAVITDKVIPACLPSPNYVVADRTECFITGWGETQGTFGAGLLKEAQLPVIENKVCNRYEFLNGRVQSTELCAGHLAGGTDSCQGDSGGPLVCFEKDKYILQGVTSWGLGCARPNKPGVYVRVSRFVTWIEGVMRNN

## CCCCC/C=C\C/C=C\CCCCCCCCOC[C@H](CO[C@@H]1O[C@H](COC(=O)CCCCCCCCCCCCCCC)[C@H](O)[C@H](O)[C@H]1O)OCCCCCCCC/C=C\C/C=C\CCCCC [ED23-11, 1,2-di-O-linoléyl-3-O-[6'-O-palmitoyl-β-D-galactopyranosyl]-sn-glycérol]
  activation de la proMMP-3 par la plasmine: inhibition
